Data from patent US20040248954A1, “Cycloalkylsulfanyl substituted benzo[b]thiophenes as therapeutic agents” (priority 2003, published 2004).

Target: T1, p101/p110γ protein (PI3Kγ) (Homo sapiens, UniProt P48736)
T1 construct: HA; made in house; host or cells: Spodoptera frugiperda (Sf9) cells, baculovirus coinfection
Experiment: PI3Kγ in vitro kinase assay
Format: biochemical
Details: purified recombinant p101/p110γ with G protein β1/γ2 subunits, 20 μM ATP, 25 μM PIP2, 20 minutes at room temperature
Experimental: Spodtera frugiperda cells, grown in ESF921 media, were coinfected with baculovirus expressing a glu-tagged pO1 and baculovirus expressing an HA-tagged p110γ, at a 3:1 ratio of p101 baculovirus to p110γ baculovirus. Sf9 cells were grown to 1×10^7 total cells/mL in 10 L bioreactors and harvested 48-72 hours post infection. Samples of infected cells were then tested for expression of p101/p110γ PI3 kinase by immunoprecipitation and Western Blot analysis methods (see below).
To purify PI3Kγ, 4 volumes of room temperature hypotonic lysis buffer (1 mM MgCl2, 1 mM DTT, 5 mM EGTA, 1 mM Pefabloc, 0.5 μM aprotinin, 5 μM leupeptin, 2 μM pepstatin, 5 μM E64, pH 8) per gram of cell paste, was poured onto frozen cell pellets with stirring, then lysed in a nitrogen “bomb” at 400 psi (599HC T316, Parr Instrument Co, Moline, Ill.). NaCl was added to 150 mM, and sodium cholate was added to 1% and mixed for another 45 minutes. The lysates were clarified by centrifugation for 25 minutes at 14,000 rpm. The lysates were then loaded over anti-glu-linked Protein-G Sepaharose beads (Covance Research Products, Richmond, Calif.) using 20 mL resin/50 g cell paste. The column was washed with 15 volumes of wash buffer (1 mM DTT, 0.2 mM EGTA, 1 mM Pefabloc, 0.5 μM aprotinin, 5 μM leupeptin, 2 μM pepstatin, 5 μM E64, 150 mM NaCl, 1% sodium cholate, pH 8). PI3Kγ was eluted with 6 column volumes of wash buffer that contain 100 μg/mL of a peptide that competes for binding of the glu tag. The column fractions with the eluted protein (determined by taking OD280 readings) were collected and dialyzed in 0.2 mM EGTA, 1 mM DTT, 1 mM Pefabloc, 5 μM leupeptin, 0.5% sodium cholate, 150 mM NaCl, and 50% glycerol, pH 8. The fractions were stored at −80° C. until further use.
Spodtera frugiperda cells were coinfected with baculovirus expressing a glu-tagged G protein β1 and baculovirus expressing a G protein β2, at a 1:1 ratio of glu-tagged G protein β1 baculovirus to G protein β2 baculovirus. Sf9 cells are grown in 10 L bioreactors and harvested 48-72 hours post infection. Samples of infected cells were tested for G protein β1/β2 expression by Western Blot analysis, as described below. Cell lysates were homogenized and loaded onto a column of glu-tagged beads as in Biological Example 1 and competed off the column with a glu peptide and processed as described in Biological Example 1.
The inhibitory properties of the compounds in Table 1 were assayed in an in vitro PI3K assay. In a 96-well polypropylene plate, each well was spotted with 2 μL of 50 times the desired final concentration of compound in DMSO. Purified recombinant p101/p110γ protein (0.03 μg; ˜2.7 nM) and G protein β1/γ2 subunits (0.09 μg; ˜57.7 nM) for each reaction was combined in the assay buffer (30 mM HEPES, 100 mM NaCl, 1 mM EGTA, and 1 mM DTT). ATP and [γ-^32P-ATP] (0.09 μCi) were added to this mixture so that the final ATP concentration in the reaction was 20 μM. Lipid micelles were formed by sonicating phosphatidylinositol4,5-diphosphate (PIP2), phosphatidylethanolamine (PE), and Na-cholate in the assay buffer for 10 minutes, adding MgCl2 and incubating on ice for 20 minutes, for final concentrations of 25 μM PIP2, 300 μM PE, 0.02% Na-cholate, and 10 mM MgCl2 in the reaction. The reactions were started by adding equal volumes lipid and enzyme mixture in a total volume of 50 μL, allowed to run for 20 minutes at room temperature, and stopped with 100 μL 75 mM H3PO4. The lipid product was transderred to a glass fiber filter plate and washed with 75 mM H3PO4 severa; times. The presence of radioactive lipid product (PIP3) was measured by adding Wallac Optiphase mix to each well and counting in a Wallac 1450 Trilux plate reader (perkinElmer Life Sciences Inc., Boston, Mass. 02118). The IC50 for each compound tested is reported in μM in Table 1: […]

T1 sequence (P48736 whole entry, species assumed): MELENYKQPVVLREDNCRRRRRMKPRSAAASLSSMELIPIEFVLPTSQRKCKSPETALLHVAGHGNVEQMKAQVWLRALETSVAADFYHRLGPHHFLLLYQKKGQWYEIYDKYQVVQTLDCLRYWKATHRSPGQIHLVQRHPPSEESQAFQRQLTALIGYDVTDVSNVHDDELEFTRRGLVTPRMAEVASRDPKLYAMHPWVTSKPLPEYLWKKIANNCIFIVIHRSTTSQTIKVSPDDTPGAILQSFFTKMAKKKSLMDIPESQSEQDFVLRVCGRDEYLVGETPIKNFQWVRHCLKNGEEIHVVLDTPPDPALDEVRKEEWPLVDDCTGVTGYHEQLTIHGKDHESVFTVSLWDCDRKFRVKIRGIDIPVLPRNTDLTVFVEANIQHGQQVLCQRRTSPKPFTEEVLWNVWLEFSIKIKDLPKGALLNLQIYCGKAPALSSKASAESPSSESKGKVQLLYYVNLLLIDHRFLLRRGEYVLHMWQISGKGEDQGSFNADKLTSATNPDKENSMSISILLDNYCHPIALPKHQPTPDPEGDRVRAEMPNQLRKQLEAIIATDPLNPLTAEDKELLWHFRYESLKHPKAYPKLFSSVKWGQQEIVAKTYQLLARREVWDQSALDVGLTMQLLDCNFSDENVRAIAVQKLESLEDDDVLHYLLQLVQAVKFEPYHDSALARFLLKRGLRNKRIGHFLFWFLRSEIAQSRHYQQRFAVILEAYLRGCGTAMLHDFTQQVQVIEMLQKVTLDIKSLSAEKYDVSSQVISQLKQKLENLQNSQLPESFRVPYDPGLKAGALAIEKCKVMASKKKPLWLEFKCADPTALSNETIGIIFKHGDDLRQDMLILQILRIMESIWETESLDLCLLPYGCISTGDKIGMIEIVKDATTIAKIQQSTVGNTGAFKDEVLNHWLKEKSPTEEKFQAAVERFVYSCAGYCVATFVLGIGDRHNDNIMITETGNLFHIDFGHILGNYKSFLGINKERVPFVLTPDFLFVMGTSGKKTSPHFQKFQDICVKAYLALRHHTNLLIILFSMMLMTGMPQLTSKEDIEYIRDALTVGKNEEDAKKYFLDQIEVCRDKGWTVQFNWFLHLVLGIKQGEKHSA
T1 sequence (Q8WYR1 whole entry partner, species assumed): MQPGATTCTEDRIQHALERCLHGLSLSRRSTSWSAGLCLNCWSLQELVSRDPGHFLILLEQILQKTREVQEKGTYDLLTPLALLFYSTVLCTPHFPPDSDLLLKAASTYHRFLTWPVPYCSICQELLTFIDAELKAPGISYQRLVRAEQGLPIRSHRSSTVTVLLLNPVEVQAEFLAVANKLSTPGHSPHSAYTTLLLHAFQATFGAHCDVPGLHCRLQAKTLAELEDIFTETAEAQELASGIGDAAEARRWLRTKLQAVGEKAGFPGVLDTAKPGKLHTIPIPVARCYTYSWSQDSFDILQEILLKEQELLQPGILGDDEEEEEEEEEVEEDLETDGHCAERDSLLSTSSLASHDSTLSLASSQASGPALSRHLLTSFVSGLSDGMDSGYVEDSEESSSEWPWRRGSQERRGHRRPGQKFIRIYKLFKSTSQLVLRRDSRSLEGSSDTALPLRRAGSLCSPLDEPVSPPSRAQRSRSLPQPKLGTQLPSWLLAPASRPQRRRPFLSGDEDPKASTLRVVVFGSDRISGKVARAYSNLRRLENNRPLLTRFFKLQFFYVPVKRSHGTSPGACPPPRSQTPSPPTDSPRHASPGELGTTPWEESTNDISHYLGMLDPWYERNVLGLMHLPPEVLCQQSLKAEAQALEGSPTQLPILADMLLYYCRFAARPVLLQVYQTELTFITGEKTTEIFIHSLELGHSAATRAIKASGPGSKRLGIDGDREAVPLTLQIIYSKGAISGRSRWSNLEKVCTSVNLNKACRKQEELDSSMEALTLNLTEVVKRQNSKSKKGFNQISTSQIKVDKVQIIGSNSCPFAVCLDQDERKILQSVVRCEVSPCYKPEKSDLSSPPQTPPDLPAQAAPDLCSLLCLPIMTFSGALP

| IC50 | Compound |
| --- | --- |
| 382 nM | COc1ccc2sc(C(=O)Nc3nnn[nH]3)c(SC3CCCCC3)c2c1 [Example 4, 3-cyclohexylsulfanyl-5-methoxy-benzo[b]thiophene-2-carboxylic acid (1H-tetrazol-5-yl)-amide] |
| 3810 nM | COc1cc2sc(C(=O)Nc3nnn[nH]3)c(SCC3CCCCC3)c2cc1OC [Example 2, 3-cyclohexylmethylsulfanyl-5,6-dimethoxy-benzo[b]thiophene-2-carboxylic acid (1H-tetrazol-5-yl)-amide] |
| 35 nM | COc1cc2c(SC3CCCCC3)c(C(=O)Nc3nnn[nH]3)sc2cc1C [Example 11, 3-Cyclohexylsulfanyl-5-methoxy-6-methyl-benzo[b]thiophene-2-carboxylic acid (1H-tetrazol-5-yl)-amide] |
| 121 nM | COc1cc2sc(C(=O)Nc3nnn[nH]3)c(SC3CCCCC3)c2cc1OC [Example 6, 3-Cyclohexylsulfanyl-5,6-dimethoxy-benzo[b]thiophene-2-carboxylic acid (1H-tetrazol-5-yl)-amide] |
| 495 nM | COCc1cc2sc(C(=O)Nc3nnn[nH]3)c(SC3CCCCC3)c2cc1OC [Example 12, 3-Cyclohexylsulfanyl-5-methoxy-6-methoxymethyl-benzo[b]thiophene-2-carboxylic acid (1H-tetrazol-5-yl)-amide] |
| 175 nM | CCOCc1cc2sc(C(=O)Nc3nnn[nH]3)c(SC3CCCCC3)c2cc1OC [Example 13, 3-Cyclohexylsulfanyl-6-ethoxymethyl-5-methoxy-benzo[b]thiophene-2-carboxylic acid (1H-tetrazol-5-yl)-amide] |
| 47 nM | COc1cc2sc(C(=O)Nc3nnn[nH]3)c(SC3CCCCC3)c2cc1C [Example 8, 3-Cyclohexylsulfanyl-6-methoxy-5-methyl-benzo[b]thiophene-2-carboxylic acid (1H-tetrazol-5-yl)-amide] |
| 249 nM | COc1cc2sc(C(=O)Nc3nnn[nH]3)c(SC3CCCC3)c2cc1OC [Example 5, 3-cyclopentylsulfanyl-5,6-dimethoxy-benzo[b]thiophene-2-carboxylic acid (1H-tetrazol-5-yl)-amide] |
| 118 nM | COc1cc2sc(C(=O)Nc3nnn[nH]3)c(SC3CCCC3)c2cc1C [Example 7, 3-Cyclopentylsulfanyl-6-methoxy-5-methyl-benzo[b]thiophene-2-carboxylic acid (1H-tetrazol-5-yl)-amide] |

The remaining lines, values behind:

| Compound | IC50 |
| --- | --- |
| COc1ccc2sc(C(=O)Nc3nnn[nH]3)c(SCC3CCCCC3)c2c1 [Example 1, 3-Cyclohexylmethylsulfanyl-5-methoxy-benzo[b]thiophene-2-carboxylic acid (1H-tetrazol-5-yl)-amide] | 92 nM |
| COc1cc2c(SC3CCCCC3)c(C(=O)Nc3nnn[nH]3)sc2cc1COCc1ccccc1 [Example 14, 6-Benzyloxymethyl-3-cyclohexylsulfanyl-5-methoxy-benzo[b]thiophene-2-carboxylic acid (1H-tetrazol-5-yl)-amide] | 640 nM |
| COc1cc2sc(C(=O)Nc3nnn[nH]3)c(SCC3CC3)c2cc1OC [Example 15, 3-Cyclopropylmethylsulfanyl-5,6-dimethoxy-benzo[b]thiophene-2-carboxylic acid (1H-tetrazol-5-yl)-amide] | 243 nM |
| CCOc1ccc2sc(C(=O)Nc3nnn[nH]3)c(SC3CCCC3)c2c1 [Example 9, 3-Cyclopentylsulfanyl-5-ethoxy-benzo[b]thiophene-2-carboxylic acid (1H-tetrazol-5-yl)-amide] | 2130 nM |
| CCOc1ccc2sc(C(=O)Nc3nnn[nH]3)c(SC3CCCCC3)c2c1 [Example 10, 3-Cyclohexylsulfanyl-5-ethoxy-benzo[b]thiophene-2-carboxylic acid (1H-tetrazol-5-yl)-amide] | 1550 nM |
| COc1ccc2sc(C(=O)Nc3nnn[nH]3)c(SC3CCCC3)c2c1 [Example 3, 3-cyclopentylsulfanyl-5-methoxy-benzo[b]thiophene-2-carboxylic acid (1H-tetrazol-5-yl)-amide] | 1190 nM |
